The results in this text go back to patent publication US10112954B2, “Bicyclic heteroaryl derivatives having inhibitory activity for protein kinase” (HANMI PHARM. CO., LTD., priority 2010, dated 2018).

For one experiment, the target named is T1, FGFR1 (Homo sapiens, UniProt P11362).
T1 construct: purchased Upstate Company
T1 sequence (P11362 22-822, species assumed): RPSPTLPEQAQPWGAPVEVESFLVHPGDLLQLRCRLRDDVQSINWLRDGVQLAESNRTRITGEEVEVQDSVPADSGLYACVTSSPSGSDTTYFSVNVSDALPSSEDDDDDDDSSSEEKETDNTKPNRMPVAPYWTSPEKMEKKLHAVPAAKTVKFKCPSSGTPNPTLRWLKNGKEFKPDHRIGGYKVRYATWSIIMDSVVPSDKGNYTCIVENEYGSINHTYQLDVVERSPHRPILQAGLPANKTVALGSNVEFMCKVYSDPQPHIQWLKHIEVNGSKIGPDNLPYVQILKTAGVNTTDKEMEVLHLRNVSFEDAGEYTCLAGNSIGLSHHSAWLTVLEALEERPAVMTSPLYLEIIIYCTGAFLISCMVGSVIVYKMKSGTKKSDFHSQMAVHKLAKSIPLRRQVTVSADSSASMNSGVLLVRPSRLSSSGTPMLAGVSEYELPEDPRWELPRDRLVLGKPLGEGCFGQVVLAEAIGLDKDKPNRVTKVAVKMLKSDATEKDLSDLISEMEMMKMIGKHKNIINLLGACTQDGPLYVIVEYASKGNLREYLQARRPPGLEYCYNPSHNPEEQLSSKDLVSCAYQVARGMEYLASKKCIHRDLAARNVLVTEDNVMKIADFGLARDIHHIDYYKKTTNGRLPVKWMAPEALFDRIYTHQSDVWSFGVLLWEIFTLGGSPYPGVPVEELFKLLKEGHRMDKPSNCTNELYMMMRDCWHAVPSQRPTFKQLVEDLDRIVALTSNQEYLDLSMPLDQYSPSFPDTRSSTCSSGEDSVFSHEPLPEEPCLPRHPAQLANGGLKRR
Briefly: Inhibition of FGFR1 kinase (fluorescence polarization kinase assay). The class given is biochemical. The conditions noted are these: Table 2, class symbols; read-out: FGFR1 IC50. The protocol:
(§1) Inhibition activities of kinases of the inventive compounds (test compounds) prepared in the Examples were assessed and represented as IC50 values.
(§2) Kinases used in Test Examples 1 to 3 were purchased from Upstate Company.
(§3) 100 mM HEPES (pH 7.4), 25 mM MgCl2, 10 mM MnCl2 and 250 μM Na3VO4 were mixed to prepare a kinase buffer. Each of kinases to be measured was diluted to a concentration of 25˜300 ng per one reaction according to its activity with the kinase buffer. Also, each of the test compounds was serially diluted to a concentration starting from 100 nM up to 0.1 nM with the kinase buffer. 10 μl of the serially diluted solution of each of the test compounds and 10 μl of the diluted kinase were added to each well of a 96-well microplate, and the plate was incubated at room temperature for 10 mins. 10 μl of a substrate and 10 μl of ATP were successively added thereto to initiate a kinase reaction, and the resulting mixture was incubated at room temperature for 1 hour. The ATP was used in a form of a solution diluted to a concentration determined according to a kinase's Km value with distilled water. 10˜100 ng/mL poly(Glu, Tyr) 4:1 (Sigma) was used as the substrate. 10 μl of 6 mM EDTA was added to each well and stirred for 5 mins to terminate the kinase reaction. For a measurement of phosphorylation degree, 50 μl of a solution containing anti-phosphotyrosine antibody and fluorescein-labeled phosphopeptide was added to the reaction mixture, followed by incubating for 30 mins. The FP (fluorescence polarization) value of each well was determined with a Victor™ D fluorescence meter (Perkin Elmer Lifesciences).
(§4) IC50, the concentration at which 50% inhibition occurs, was evaluated based on the difference between the final concentration of the test cells and the initial concentration of the cells incubated in a well not-treated with the test compound which was regarded as 100%. IC50 values of the test compounds on the FGFR kinase were shown in Table 2, and those of the test compound obtained in Example 177 on various kinases, in Table 3.
For the compound `CCN(CC)CCOc1ccc(Nc2ncnc3c(C(=O)Nc4c(Cl)c(OC)cc(OC)c4Cl)csc23)cc1` [Example 196, N-(2,6-dichloro-3,5-dimethoxyphenyl)-4-(4-(2-(diethylamino)ethoxy)phenylamino) thieno[3,2-d]pyrimidine-7-carboxamide], the IC50 was 100 to 500 nM. The same measure, in the same setting: the value for `CCN1CCN(c2cccc(Nc3ncnc4c(C(=O)Nc5c(Cl)c(OC)cc(OC)c5Cl)csc34)c2)CC1` [Example 201, N-(2,6-dichloro-3,5-dimethoxyphenyl)-4-(3-(4-ethylpiperazin-1-yl)phenylamino) thieno[3,2-d]pyrimidine-7-carboxamide] was 100 to 500 nM; that for `CCOC(=O)NC(=S)Nc1ncnc2c(C(=O)Nc3c(Cl)c(OC)cc(OC)c3Cl)csc12` [Example 216, N-(2,6-dichloro-3,5-dimethoxyphenyl)-4-(3-(ethoxycarbonyl)thioureido)thieno[3,2-d]pyrimidine-7-carboxamide] was 100 to 500 nM.

The target in the next experiment is T2, FGFR3 (Homo sapiens, UniProt P22607).
T2 construct: purchased Upstate Company
T2 sequence (P22607 23-806, species assumed): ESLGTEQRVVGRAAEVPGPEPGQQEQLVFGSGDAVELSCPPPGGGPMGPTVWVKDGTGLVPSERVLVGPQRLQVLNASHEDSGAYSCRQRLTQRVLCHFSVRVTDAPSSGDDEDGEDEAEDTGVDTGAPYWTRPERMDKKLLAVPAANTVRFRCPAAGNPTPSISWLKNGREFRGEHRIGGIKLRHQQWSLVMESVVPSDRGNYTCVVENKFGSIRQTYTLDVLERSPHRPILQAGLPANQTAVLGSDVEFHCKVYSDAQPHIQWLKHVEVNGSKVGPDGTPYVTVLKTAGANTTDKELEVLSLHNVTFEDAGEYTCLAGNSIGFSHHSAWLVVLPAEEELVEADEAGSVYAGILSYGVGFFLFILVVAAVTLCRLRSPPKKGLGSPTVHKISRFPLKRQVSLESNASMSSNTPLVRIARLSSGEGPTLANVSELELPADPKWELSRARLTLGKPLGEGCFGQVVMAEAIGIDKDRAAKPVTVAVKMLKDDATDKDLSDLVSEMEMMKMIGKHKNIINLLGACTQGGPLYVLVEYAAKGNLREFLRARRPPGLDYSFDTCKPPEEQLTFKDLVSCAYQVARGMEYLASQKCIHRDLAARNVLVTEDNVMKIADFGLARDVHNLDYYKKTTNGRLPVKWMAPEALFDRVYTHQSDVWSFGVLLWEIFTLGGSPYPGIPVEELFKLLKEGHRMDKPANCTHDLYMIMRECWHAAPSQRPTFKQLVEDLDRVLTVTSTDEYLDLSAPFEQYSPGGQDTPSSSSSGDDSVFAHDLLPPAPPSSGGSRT
Briefly: Inhibition of FGFR3 kinase (fluorescence polarization kinase assay). The class given is biochemical. To be noted: Table 2, class symbols; read-out: FGFR3 IC50. The method, then:
as §1, §2, §3, §4
For `CCN(CC)CCOc1ccc(Nc2ncnc3c(C(=O)Nc4c(Cl)c(OC)cc(OC)c4Cl)csc23)cc1` [Example 196, N-(2,6-dichloro-3,5-dimethoxyphenyl)-4-(4-(2-(diethylamino)ethoxy)phenylamino) thieno[3,2-d]pyrimidine-7-carboxamide], the IC50 lay within 500 to 1000 nM. For the compound `CCN1CCN(c2cccc(Nc3ncnc4c(C(=O)Nc5c(Cl)c(OC)cc(OC)c5Cl)csc34)c2)CC1` [Example 201, N-(2,6-dichloro-3,5-dimethoxyphenyl)-4-(3-(4-ethylpiperazin-1-yl)phenylamino) thieno[3,2-d]pyrimidine-7-carboxamide], the IC50 lay in the range of 100 to 500 nM. On the same count and under the same terms, the value for `CCN(CC)CCCCNc1ncnc2c(C(=O)Nc3c(Cl)c(OC)c(Br)c(OC)c3Cl)csc12` [Example 157, N-(4-bromo-2,6-dichloro-3,5-dimethoxyphenyl)-4-(4-(diethylamino)butyl-amino)thieno[3,2-d]pyrimidine-7-carboxamide] was 1000 to 5000 nM; that for `COc1cc(OC)c(Cl)c(NC(=O)c2csc3c(Nc4ccc(C)cn4)ncnc23)c1Cl` [Example 178, N-(2,6-dichloro-3,5-dimethoxyphenyl)-4-(5-methylpyridin-2-ylamino)thieno[3,2-d]pyrimidine-7-carboxamide] was 100 to 500 nM. Same read-out and setting: the value for `COc1cc(NC(=O)c2csc3c(Nc4ccccc4)ncnc23)c2ccoc2c1` [Example 114] was 1000 to 5000 nM; that for `COc1cc(OC)c(Cl)c(NC(=O)c2csc3c(Nc4cc(OCCN(C)C)ncn4)ncnc23)c1Cl` [Example 209, N-(2,6-dichloro-3,5-dimethoxyphenyl)-4-(6-(2-(dimethylamino)eth-oxy)pyrimidin-4-ylamino)thieno[3,2-d]pyrimidine-7-carboxamide] was 100 to 500 nM.

With `CCN(CC)C(=O)Cc1ccnc(Nc2ncnc3c(C(=O)Nc4c(Cl)c(OC)cc(OC)c4Cl)csc23)c1` [Example 292, N-(2,6-dichloro-3,5-dimethoxyphenyl)-4-(4-(2-(diethylamino)-2-oxoethyl)pyridin-2-ylamino)thieno[3,2-d]pyrimidine-7-carboxamide], the IC50 lay in the range of 1 to 100 nM. On the same count and under the same terms, the same measure for `COc1cc(OC)c(Cl)c(/C=C/c2csc3c(N)ncnc23)c1Cl` [Example 76, 7-(2,6-dichloro-3,5-dimethoxystyryl) thieno[3,2-d]pyrimidine-4-amine]: 1000 to 5000 nM; for `CCOC(=O)NC(=S)Nc1ncnc2c(C(=O)Nc3c(Cl)c(OC)cc(OC)c3Cl)csc12` [Example 216, N-(2,6-dichloro-3,5-dimethoxyphenyl)-4-(3-(ethoxycarbonyl)thioureido)thieno[3,2-d]pyrimidine-7-carboxamide]: 500 to 1000 nM. `CCN1CCN(c2ccc(C(=O)Nc3ncnc4c(C(=O)Nc5c(Cl)c(OC)c(Br)c(OC)c5Cl)csc34)cc2)CC1` [Example 203, N-(4-bromo-2,6-dichloro-3,5-dimethoxyphenyl)-4-(4-(4-ethylpiperazin-1-yl)benzamido)thieno[3,2-d]pyrimidine-7-carboxamide]: the IC50 is 1000 to 5000 nM. As to `COc1cc(OC)c(Cl)c(NC(=O)c2csc3c(Nc4ccc(CN5CCNC(=O)C5)cn4)ncnc23)c1Cl` [Example 263, N-(2,6-dichloro-3,5-dimethoxyphenyl)-4-(5-((3-oxopiperazin-1-yl)methyl)pyridin-2-ylamino)thieno[3,2-d]pyrimidine-7-carboxamide], the IC50 was in the range of 1 to 100 nM. Same read-out and setting: the value for `COc1cc(OC)c(Cl)c(NC(=O)c2csc3c(Nc4ccc(CC(=O)N5CCOCC5)cn4)ncnc23)c1Cl` [Example 257, N-(2,6-dichloro-3,5-dimethoxyphenyl)-4-(5-(2-morpholino-2-oxoethyl)pyridin-2-ylamino)thieno[3,2-d]pyrimidine-7-carboxamide] was 1 to 100 nM.

For `COc1cc(OC)c(Cl)c(NC(=O)c2csc3c(Nc4ccc(C(N)=O)cn4)ncnc23)c1Cl` [Example 274, 4-(5-carbamoylpyridin-2-ylamino)-N-(2,6-dichloro-3,5-dimethoxyphenyl) thieno[3,2-d]pyrimidine-7-carboxamide], the IC50 fell in the range of 1 to 100 nM. Take `COc1cc(OC)c(Cl)c(NC(=O)c2csc3c(Nc4cc(NCCN5CCOCC5)ncn4)ncnc23)c1Cl` [Example 208, N-(2,6-dichloro-3,5-dimethoxyphenyl)-4-(6-(2-morpholinoethyl-amino)pyrimidin-4-ylamino)thieno[3,2-d]pyrimidine-7-carboxamide]: the IC50 was 1 to 100 nM. On the same count and under the same terms, the same measure for `COc1c(Cl)c(NC(=O)c2csc3c(Nc4ccc(F)c(Cl)c4)ncnc23)c(Cl)c(OC)c1Br` [Example 287, N-(4-bromo-2,6-dichloro-3,5-dimethoxyphenyl)-4-(3-chloro-4-fluorophenylamino) thieno[3,2-d]pyrimidine-7-carboxamide]: 1000 to 5000 nM; for `CCN1CCN(CCCNc2ncnc3c(C(=O)Nc4c(Cl)c(OC)cc(OC)c4Cl)csc23)CC1` [Example 171, N-(2,6-dichloro-3,5-dimethoxyphenyl)-4-(3-(4-ethylpiperazin-1-yl)propylamino) thieno[3,2-d]pyrimidine-7-carboxamide]: 1000 to 5000 nM; for `COc1cc(OC)c(Cl)c(NC(=O)c2csc3c(NS(C)(=O)=O)ncnc23)c1Cl` [Example 206, N-(2,6-dichloro-3,5-dimethoxyphenyl)-4-(methylsulfonamido) thieno[3,2-d]pyrimidine-7-carboxamide]: 1000 to 5000 nM. The same measure, in the same setting: the value for `CCN1CCN(c2ccc(C(=O)Nc3ncnc4c(C(=O)Nc5c(Cl)c(OC)cc(OC)c5Cl)csc34)cc2)CC1` [Example 204, N-(2,6-dichloro-3,5-dimethoxyphenyl)-4-(4-(4-ethylpiperazin-1-yl)benzamido)thieno[3,2-d]pyrimidine-7-carboxamide] was 100 to 500 nM; that for `COc1cc(OC)c(Cl)c(NC(=O)c2csc3c(Nc4ccc(CN5CCCC(C(F)(F)F)C5)cn4)ncnc23)c1Cl` (stereo not drawn) [Example 259, N-(2,6-dichloro-3,5-dimethoxyphenyl)-4-(5-((3-(trifluoromethyl)piperidin-1-yl)methyl)pyridin-2-ylamino)thieno[3,2-d]pyrimidine-7-carboxamide] was 1000 to 5000 nM. As for `COc1cc(OC)c(Cl)c(NC(=O)c2csc3c(Nc4ccc(C(=O)NN5CCN(C)CC5)cn4)ncnc23)c1Cl` [Example 268, N-(2,6-dichloro-3,5-dimethoxyphenyl)-4-(5-(4-methylpiperazin-1-ylcarbamoyl)pyridin-2-ylamino)thieno[3,2-d]pyrimidine-7-carboxamide], the IC50 lay within 1 to 100 nM. Same read-out and setting: the same measure for `COc1cc(OC)c(Cl)c(NC(=O)c2csc3c(NC4CC4)ncnc23)c1Cl` [Example 168, 4-(cyclopropylamino)-N-(2,6-dichloro-3,5-dimethoxyphenyl) thieno[3,2-d]pyrimidine-7-carboxamide]: 1 to 100 nM; for `COc1cc(NC(=O)c2csc3c(N)ncnc23)c2ccoc2c1` [Example 113]: 1000 to 5000 nM. Regarding `COc1cc(OC)c(Cl)c(NC(=O)c2csc3c(Nc4ccc(C(=O)N5CCOCC5)cn4)ncnc23)c1Cl` [Example 255, N-(2,6-dichloro-3,5-dimethoxyphenyl)-4-(5-(morpholine-4-carbonyl)pyridin-2-ylamino)thieno[3,2-d]pyrimidine-7-carboxamide], the IC50 lay within 1 to 100 nM.

`COc1cc(OC)c(Cl)c(NC(=O)c2csc3c(Nc4cc(CN5CCSC5)ccn4)ncnc23)c1Cl` [Example 291, N-(2,6-dichloro-3,5-dimethoxyphenyl)-4-(4-(thiazolidin-3-ylmethyl)pyridin-2-ylamino)thieno[3,2-d]pyrimidine-7-carboxamide]: the IC50 fell in the range of 1 to 100 nM.

Consider `COc1cc(OC)c(Cl)c(NC(=O)c2csc3c(Nc4cc(C)ccn4)ncnc23)c1Cl` [Example 270, N-(2,6-dichloro-3,5-dimethoxyphenyl)-4-(4-methylpyridin-2-ylamino)thieno[3,2-d]pyrimidine-7-carboxamide], for which the IC50 fell in the range of 1 to 100 nM. On the same count and under the same terms, the same measure for `CCN1CCN(c2cc(Nc3ncnc4c(C(=O)Nc5c(Cl)c(OC)cc(OC)c5Cl)csc34)ncn2)CC1` [Example 182, N-(2,6-dichloro-3,5-dimethoxyphenyl)-4-(6-(4-ethylpiperazin-1-yl)pyrimidin-4-ylamino)thieno[3,2-d]pyrimidine-7-carboxamide]: 1 to 100 nM; for `CCN(CC)Cc1cccc(Nc2ncnc3c(C(=O)Nc4c(Cl)c(OC)cc(OC)c4Cl)csc23)n1` [Example 273, N-(2,6-dichloro-3,5-dimethoxyphenyl)-4-(6-((diethylamino)methyl)pyridin-2-ylamino)thieno[3,2-d]pyrimidine-7-carboxamide]: 1000 to 5000 nM.
